Test results as given in patent publication US12527785B2, “Renin-angiotensin-aldosterone system (RAAS) inhibitors in the treatment of pancreatic ductal carcinoma” (OCHSNER CLINIC FOUNDATION, priority 2023, dated 2026).
Like-named read-outs stand apart in the source and are kept apart here.

Experiments:
[1] = tested on: PANC-1 tumor orthotopic xenograft; assay: PANC-1 tumor orthotopic xenograft mouse model (BLI tumor burden, tumor weight); assay type: in vivo; details: for Tumor weight / Tumor weight, mean: 100 mg/kg EMA401, DWK 8.5; for Tumor weight: Table 17A, control 0.9444; for Tumor weight lowered versus control: EMA401 (100 mg/kg); for BLI data, % of control / BLI data, mean: four weeks; for BLI data, mean: control 3.003
Excerpt: (§1) Human PDCA cell line PANC-1 was transduced with pre-made lentiviral vectors encoding luciferase (firefly)/red fluorescent protein (RFP) to enable monitoring of the growth of primary tumor and metastasis. […] For in vivo experiments, Nonobese diabetic/severe combined immunodeficiencyNOD-SCID mice (Jackson Labs, Bar Harbor, ME, or inhouse breeding) were first brought under anesthesia with isoflurane (2.5% in 100% oxygen, 1 L/min) in an induction chamber and maintained under adequate anesthesia (isoflurane inhalation) while being laid on a warming pad throughout the surgical procedure. For tumor generation, 5×10^4 luciferase-tagged PANC-1 cells were co-inoculated with 3×10^5 lymph node stromal cell (LNSC) analog HK cells. The mice received a 0.75-1.2 cm long incision (on the left side of the body slightly medial to the splenic silhouette) to exteriorize the spleen and pancreas. While gently retracting the pancreas laterally, a 30 G needle was inserted along the length of the pancreas from the tail to the pancreatic head region. Then, 10 μl of cell suspension was injected as the needle was withdrawn to the mid-body of the pancreas. The needle was removed, and the area was inspected for leakage and bleeding. The pancreas and spleen were internalized with forceps and the abdominal muscle layer was closed with interrupted stitches (3-0 silk suture). The overlying skin was closed with a second set of interrupted stitches. Buprenorphine SR-LAB was injected subcutaneously immediately after the surgery for pain relief.
After the surgery, tumor growth and metastatic tumor burden were monitored and assessed weekly for luciferase activity by bioluminescence imaging (BLI) using Lago Imaging System (Spectral Instruments Imaging, Tucson, AZ). Mice were anesthetized using isoflurane for all imaging procedures. Mice were administered intraperitoneally with luciferin (10 mg/kg) and imaged in 10-20 minutes for maximum luciferase signal plateau. Images were analyzed using Aura Imaging software. Once the BLI levels of xenografted tumor reached 5×10^8 photons (around 7-9 weeks post PANC-1 cell injection), the mice were grouped based on their BLI level and compounds (e.g., drugs) of the present disclosure were given by gavage daily to each group for 4 weeks. […] Upon sacrifice after 4 weeks of treatment, primary tumors and mouse organs were harvested, weighed, imaged, and formalin-fixed for (hematoxylin and eosin) H&E and immunohistochemistry staining. Data was statistically analyzed using t-test, or t-test with Bonferroni correction.

[2] = 100 mg EMA401 p.o. in men and women; cited from earlier work
[3] = tested on: PaCa-9 PDAC patient tumor cells; assay: WST1 cell proliferation assay, PaCa-9 PDAC patient tumor cells; assay type: cell-based, human; details: 10% FCS-DMEM
Procedure: PDA cell line (PANC-1 or HS766T) or patient cancer cells (PaCa9) were trypsinized with 1% trypsin in Hank's Balanced Salt Solution (HBSS), counted, washed, and resuspended in serum free AIM media (ThermoFisher Scientific, Waltham, MA) or complete Dulbecco's Modified Eagle Medium (DMEM) supplemented with 10% fetal bovine serum, […], 100 U/ml of penicillin G, and […] of streptomycin. Cells at a concentration of 2-4×10^4 cells/well in 100 μl culture medium were seeded in triplicate in 96 well plates, then cultured in a humidified incubator at 37° C. and 5% CO2. On the next day, cell supernatant was discarded and compounds (e.g., drugs) of the present disclosure in 200 μl medium were added with the concentrations indicated in the following Examples. After 72 hours of culture, cell proliferation reagent WST1 (20 μl/well, Sigma Aldrich Inc, St. […] The measured absorbance (OD value) was recorded and graphed and statistically analyzed using GraphPad Prism 8, t-test, or t-test with Bonferroni correction.

[4] = Toxicity, body weight and deaths observed in the in vivo xenograft studies
Excerpt: as §1
After the surgery, tumor growth and metastatic tumor burden were monitored and assessed weekly for luciferase activity by bioluminescence imaging (BLI) using Lago Imaging System (Spectral Instruments Imaging, Tucson, AZ). Mice were anesthetized using isoflurane for all imaging procedures. Mice were administered intraperitoneally with luciferin (10 mg/kg) and imaged in 10-20 minutes for maximum luciferase signal plateau. Images were analyzed using Aura Imaging software. […] […] […] Data was statistically analyzed using t-test, or t-test with Bonferroni correction.

[5] = Serum concentration of EMA401 after oral dosing in humans; assay type: in vivo, human
[6] = tested on: PDCA cells (PANC-1, HS766T, PaCa9); assay: In vitro PDCA cell proliferation (WST1), summary statements over the cell lines tested; assay type: cell-based; details: 10 μM; all cell lines tested
Procedure: (§2) PDA cell line (PANC-1 or HS766T) or patient cancer cells (PaCa9) were trypsinized with 1% trypsin in Hank's Balanced Salt Solution (HBSS), counted, washed, and resuspended in serum free AIM media (ThermoFisher Scientific, Waltham, MA) or complete Dulbecco's Modified Eagle Medium (DMEM) supplemented with 10% fetal bovine serum, […], 100 U/ml of penicillin G, and […] of streptomycin. Cells at a concentration of 2-4×10^4 cells/well in 100 μl culture medium were seeded in triplicate in 96 well plates, then cultured in a humidified incubator at 37° C. and 5% CO2. On the next day, cell supernatant was discarded and compounds (e.g., drugs) of the present disclosure in 200 μl medium were added with the concentrations indicated in the following Examples. After 72 hours of culture, cell proliferation reagent WST1 (20 μl/well, Sigma Aldrich Inc, St. Louis, MO) were added and plates were read using an ELISA reader at 2 hours and 4 hours under the wavelength of 450 nm. The measured absorbance (OD value) was recorded and graphed and statistically analyzed using GraphPad Prism 8, t-test, or t-test with Bonferroni correction.

HS766T cells = assay: WST1 cell proliferation assay, HS766T cells; assay type: cell-based; details: 10% FCS-DMEM
Procedure: as §2

SMILES: COc1ccc2c(c1OCc1ccccc1)C[C@@H](C(=O)O)N(C(=O)C(c1ccccc1)c1ccccc1)C2 [EMA401]
- Tumor weight ([1]; all animals): 0.7215 g
- Tumor weight ([1]; excluding one outlier): 0.6174 (Excluding
- Tumor weight, mean ([1]; Table 17B (repeated study), control 0.8041): 0.5383 g
- Tumor weight, mean ([1]; Table 17C (both studies pooled, including the outlier), control 0.8763): 0.6347 g
- Tumor weight fall versus control ([1]; 100 mg/kg EMA401 for 8 weeks, first study, all animals, did not reach statistical significance): 24%
- Tumor weight decrease versus control ([1]; 100 mg/kg EMA401 for 8 weeks, first study, one outlier omitted, p=0.036): 35%
- Effect on tumor weight ([1]; EMA401 60 mg/kg, short-term (4 week) low dose study): did not reduce tumor weight
- Tumor weight lowered versus control ([1]; 4 week study, not statistically significant): 26%
- Tumor weight lowered versus control ([1]; after 8 weeks treatment (example 5), significant): 33%
- BLI data, % of control ([1]; EMA (60 mg/kg)): 59%
- BLI data, mean ([1]; EMA (60 mg/kg)): 1.782
- BLI data, % of control ([1]; EMA (100 mg/kg)): 61%
- BLI data, mean ([1]; EMA (100 mg/kg)): 1.834
- Serum concentration [2]: 1000 ng/mL
- cell proliferation, WST1 absorbance (OD value, 450 nm), mean ([3]; EMA 10 μM, Table 3, 1 h, Medium/DMSO 3.571): 2.088
- cell proliferation, WST1 absorbance (OD value, 450 nm), mean ([3]; EMA 10 μM, Table 4, 2 h, Medium/DMSO >3.60): 2.910
- cell proliferation, WST1 absorbance (OD value, 450 nm), mean ([3]; EMA 50 μM, Table 3, 1 h, Medium/DMSO 3.571): 2.000
- cell proliferation, WST1 absorbance (OD value, 450 nm), mean ([3]; EMA 50 μM, Table 4, 2 h, Medium/DMSO >3.60): 2.447
- cell proliferation, WST1 absorbance (OD value, 450 nm), mean ([3]; EMA401 10 μM, Table 7A, 2×10^4 cells per well, control 3.535): 3.257
- cell proliferation, WST1 absorbance (OD value, 450 nm), mean ([3]; EMA401 50 μM, Table 7A, 2×10^4 cells per well, control 3.535): 0.541
- End of study body weights versus control ([4]; 100 mg/kg EMA401 for 8 weeks): not different
- Drug-related toxicity ([4]; 100 mg/kg EMA401 for 8 weeks (Table 16, Tables 17A-17C)): No drug-related toxicity was observed
- Deaths during the study ([4]; 100 mg/kg EMA401 for 8 weeks, one control animal died): no EMA401-treated animal died
- Serum concentration ([5]; 100 mg EMA401 p.o. in men and women, converted with mol wt 507.6): 2 µM
- Serum concentration ([5]; 400 mg/day EMA401 in humans): 8 µM
- Serum concentration ([5]; 600 mg/day p.o., extrapolated (would produce)): 12 µM
- Effective (statistically significant, p<0.05, decrease in cell proliferation by WST1 assay) [6]: effective in all cell lines tested
- cell proliferation, WST1 absorbance (OD value, 450 nm), mean (HS766T cells; EMA 10 μM, Table 2, 2 h, control 3.214): 1.360
- cell proliferation, WST1 absorbance (OD value, 450 nm), mean (HS766T cells; EMA 50 μM, Table 2, 2 h, control 3.214): 1.41
- cell proliferation, WST1 absorbance (OD value, 450 nm), mean (HS766T cells; EMA401 10 μM, Table 6A, 2×10^4 cells per well, control 3.339): 3.290
- cell proliferation, WST1 absorbance (OD value, 450 nm), mean (HS766T cells; EMA401 50 μM, Table 6A, 2×10^4 cells per well, control 3.339): 0.593
